Measured values published in patent US12077604B2, “Deuterated compounds, compositions, and methods for treating cancers associated with ETBR activation” (ENB Therapeutics Inc., priority 2018, dated 2024).
“Also recorded” adds a separate entry of the source.

How the values were obtained:
ETA (h) = target: T1, ETA (h) (Homo sapiens, UniProt P25101); assay: ETA (h) cellular antagonist effect; type: cell-based
T1 sequence (P25101 21-427): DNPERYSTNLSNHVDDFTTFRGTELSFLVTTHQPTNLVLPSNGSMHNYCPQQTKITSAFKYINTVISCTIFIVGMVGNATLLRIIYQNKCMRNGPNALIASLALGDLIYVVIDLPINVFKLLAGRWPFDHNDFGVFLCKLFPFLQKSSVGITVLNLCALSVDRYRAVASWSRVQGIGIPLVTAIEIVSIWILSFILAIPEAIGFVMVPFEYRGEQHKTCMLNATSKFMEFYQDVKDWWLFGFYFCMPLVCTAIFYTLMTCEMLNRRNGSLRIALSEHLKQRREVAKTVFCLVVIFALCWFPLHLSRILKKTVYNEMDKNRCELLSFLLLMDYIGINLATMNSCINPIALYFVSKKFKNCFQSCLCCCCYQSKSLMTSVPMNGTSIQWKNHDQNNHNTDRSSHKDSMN
Experimental: FIGS. 5A and 5B show determination of ETA (h) inhibitory effect for A) BQ-788 and B) BQ-788-B, a specifically deuterated ETRB antagonist. Cellular agonist effect was calculated as a % of control response to a known reference agonist for ETA (h), and cellular antagonist effect was calculated as a % inhibition of control reference agonist response for ETA.
Cellular agonist effect was calculated as a % of control response to a known reference agonist for ETA (h), and cellular antagonist effect was calculated as a % inhibition of control reference agonist response for ETA.

ETB (h) = target: T2, ETB (h) (Homo sapiens, UniProt P24530); assay: ETB (h) cellular antagonist effect; type: cell-based
T2 sequence (P24530 27-442): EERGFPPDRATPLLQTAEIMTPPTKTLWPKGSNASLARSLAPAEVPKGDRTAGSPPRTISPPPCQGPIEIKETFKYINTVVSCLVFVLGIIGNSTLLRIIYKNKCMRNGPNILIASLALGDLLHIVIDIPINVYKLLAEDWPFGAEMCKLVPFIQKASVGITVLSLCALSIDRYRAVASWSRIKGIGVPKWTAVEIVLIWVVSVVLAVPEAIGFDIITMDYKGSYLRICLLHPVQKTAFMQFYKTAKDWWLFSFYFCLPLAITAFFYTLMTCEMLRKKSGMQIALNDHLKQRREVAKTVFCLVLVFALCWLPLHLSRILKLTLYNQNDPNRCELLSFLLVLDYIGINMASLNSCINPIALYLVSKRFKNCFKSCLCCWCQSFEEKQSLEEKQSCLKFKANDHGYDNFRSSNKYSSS
Experimental: (§1) Cellular agonist effect was calculated as a % of control response to a known reference agonist for ETB (h), and cellular antagonist effect was calculated as a % inhibition of control reference agonist response for ETB.
as §1, with “Determination of ETBR inhibitory effect for specifically deuterated ETRB antagonists. […] Cellular” for “Cellular”

CXCR4 (h) = target: T3, CXCR4 (h) (Homo sapiens, UniProt P61073); assay: CXCR4 (h) cellular antagonist effect, impedance by dielectric spectroscopy, stimulated with 1 nM SDF-1α; type: cell-based; details: recombinant human CXCR4 in CHO cells, 28° C.
T3 construct: expressed in transfected cells; host or cells: CHO cells
Experimental: FIGS. 4A and 4B show determination of CXCR4 (h) inhibitory effect for, A) BQ-788 and B) BQ-788-B, a specifically deuterated ETRB antagonist (i.e., “Compound 1”). Cellular agonist effect was calculated as a % of control response to a known reference agonist for CXCR4 (h), and cellular antagonist effect was calculated as a % inhibition of control reference agonist response for CXCR4.
Determination of CXCR4 inhibitory effect. The inhibitory effect on CXCR4 (h) was determined for BQ-788 (FIG. 4A), and BQ-788 (FIG. 4B) BQ-788-B (i.e., “Compound 1”). Cellular agonist effect was calculated as a % of control response to a known reference agonist for CXCR4 (h), and cellular antagonist effect was calculated as a % inhibition of control reference agonist response for CXCR4. Recombinant human CXCR4 was expressed in CHO cells, and stimulated with 1 nM SDF-1α and incubated at 28° C. Dielectric spectroscopy was used to measure impedance of the cells.

ETBR = assay: Plasma ET-1 ELISA after IV infusion, indirect measure of ETBR engagement; type: in vivo; details: rats, 250 μg/kg IV infusion
Experimental: Briefly, rats (N=4 animals per timepoint) were administered either BQ-788 or the deuterated form, BQ-788-B at a dose of 250 μg/kg via IV infusion. Plasma samples were collected at various time points and ET-1 ELISA performed. BQ788 and BQ788-B are peptide drugs that are rapidly degraded in plasma and thus drug levels are difficult to detect directly. […] As such, plasma levels of ET-1 are commonly used as an indirect measure of BQ-788 biologic activity.

T3 sequence (P61073 whole entry): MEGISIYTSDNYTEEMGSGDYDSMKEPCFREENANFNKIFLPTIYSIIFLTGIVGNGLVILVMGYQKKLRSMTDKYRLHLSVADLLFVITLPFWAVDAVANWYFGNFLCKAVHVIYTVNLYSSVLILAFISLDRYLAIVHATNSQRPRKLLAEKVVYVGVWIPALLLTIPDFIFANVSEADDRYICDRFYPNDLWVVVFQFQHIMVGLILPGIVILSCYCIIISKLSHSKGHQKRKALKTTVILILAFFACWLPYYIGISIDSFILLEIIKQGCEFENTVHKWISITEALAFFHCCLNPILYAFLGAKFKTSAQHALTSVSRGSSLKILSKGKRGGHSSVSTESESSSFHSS

Kd (ETB (h)) [nM]	IC50 (CXCR4 (h); read-out: IC50, inhibition of control reference agonist response for CXCR4 (h)) [nM]	Compound	IC50, inhibition of control reference agonist response for ETA (h) (ETA (h))	IC50 (ETB (h); read-out: IC50, inhibition of control reference agonist response for ETB (h)) [nM]	IC50, inhibition of control reference agonist response for CXCR4 (h) (CXCR4 (h))	plasma ET-1 response: prolonged peak out to (ETBR; ET-1 ELISA)	biologic activity in vivo by plasma ET-1 (duration and amplitude of response) (ETBR; compared with non-deuterated BQ-788)
–	–	[2H]C[C@@H]1CCC[C@H](C[2H])N1C(=O)N[C@@H](CC(C)(C)C)C(=O)N[C@H](Cc1cn(C(=O)OC)c2ccccc12)C(=O)N[C@H](CCCC)C(=O)O [BQ-788-B]	not calculable	96	not calculable	about 3 hours	enhanced duration and amplitude of response relative to the undeuterated form; also recorded: enhanced biological activity relative to BQ-788
13	> 1000	CCCC[C@@H](NC(=O)[C@@H](Cc1cn(C(=O)OC)c2ccccc12)NC(=O)[C@H](CC(C)(C)C)NC(=O)N1[C@H](C)CCC[C@@H]1C)C(=O)O [BQ-788]	not calculable	–	–	–	–
